Laboratory results reported in PubChem BioAssay (NCI).
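How tested: cells in 96-well plates exposed to compound for 48 hours at five concentrations. Here, GI50 denotes the concentration required for 50% inhibition of growth. TGI marks complete inhibition of growth.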

Tests used:
Assay in all cases: NCI-60 cell line screen, 48 h
SW-620 colon = system: SW-620 colon
EKVX NSCLC = system: EKVX NSCLC
NCI-H460 lung = system: NCI-H460 lung
ACHN renal = system: ACHN renal
NCI-H23 lung = system: NCI-H23 lung
UACC-257 melanoma = system: UACC-257 melanoma
SNB-19 CNS = system: SNB-19 CNS
SK-MEL-2 melanoma = system: SK-MEL-2 melanoma
786-0 renal = system: 786-0 renal
SR leukemia = system: SR leukemia
SF-268 CNS = system: SF-268 CNS
SK-OV-3 ovarian = system: SK-OV-3 ovarian
OVCAR-3 ovarian = system: OVCAR-3 ovarian
DU-145 prostate = system: DU-145 prostate
SF-539 CNS = system: SF-539 CNS
T-47D breast = system: T-47D breast
UACC-62 melanoma = system: UACC-62 melanoma
MDA-MB-435 = system: MDA-MB-435
HT29 colon = system: HT29 colon
CAKI-1 renal = system: CAKI-1 renal
MDA-MB-231 breast = system: MDA-MB-231 breast
SN12C renal = system: SN12C renal
HL-60(TB) leukemia = system: HL-60(TB) leukemia
MALME-3M melanoma = system: MALME-3M melanoma
UO-31 renal = system: UO-31 renal
U251 CNS = system: U251 CNS
HOP-92 NSCLC = system: HOP-92 NSCLC
HCC-2998 colon = system: HCC-2998 colon
A549 NSCLC = system: A549 NSCLC
PC-3 prostate = system: PC-3 prostate
BT-549 breast = system: BT-549 breast
LOX IMVI melanoma = system: LOX IMVI melanoma
RXF 393 renal = system: RXF 393 renal
HOP-62 NSCLC = system: HOP-62 NSCLC
MCF7 breast = system: MCF7 breast
K-562 leukemia = system: K-562 leukemia
MOLT-4 leukemia = system: MOLT-4 leukemia
OVCAR-8 ovarian = system: OVCAR-8 ovarian
COLO 205 colon = system: COLO 205 colon
CCRF-CEM leukemia = system: CCRF-CEM leukemia
OVCAR-4 ovarian = system: OVCAR-4 ovarian
A498 renal = system: A498 renal
RPMI-8226 leukemia = system: RPMI-8226 leukemia
HCT-15 colon = system: HCT-15 colon
NCI/ADR-RES ovarian = system: NCI/ADR-RES ovarian
SK-MEL-5 melanoma = system: SK-MEL-5 melanoma
KM12 colon = system: KM12 colon
SNB-75 CNS = system: SNB-75 CNS
TK-10 renal = system: TK-10 renal
SF-295 CNS = system: SF-295 CNS
HCT-116 colon = system: HCT-116 colon
NCI-H226 lung = system: NCI-H226 lung
SK-MEL-28 melanoma = system: SK-MEL-28 melanoma
OVCAR-5 ovarian = system: OVCAR-5 ovarian

**Q.** What does the source list for Cn1c(-c2c(N)n(Cc3ccc(C(F)(F)F)cc3)c3nc(C#N)c(C#N)nc23)nc2ccccc21?
**A.** GI50 (SW-620 colon): 19.5 µM; TGI (SW-620 colon): 42.2 µM; GI50 (EKVX NSCLC): 13.8 µM; TGI (EKVX NSCLC): > 100 µM; GI50 (NCI-H460 lung): 14.5 µM; TGI (NCI-H460 lung): 40.3 µM; GI50 (ACHN renal): 22 µM; TGI (ACHN renal): > 100 µM; GI50 (NCI-H23 lung): 24.4 µM; TGI (NCI-H23 lung): 70.2 µM; GI50 (UACC-257 melanoma): 28.1 µM; TGI (UACC-257 melanoma): 65.2 µM; GI50 (SNB-19 CNS): 11.7 µM; TGI (SNB-19 CNS): 73 µM; GI50 (SK-MEL-2 melanoma): 19.5 µM; TGI (SK-MEL-2 melanoma): 60.3 µM; GI50 (786-0 renal): 18.3 µM; TGI (786-0 renal): 40.2 µM; GI50 (SR leukemia): 20.6 µM; TGI (SR leukemia): 47.3 µM; GI50 (SF-268 CNS): 19.7 µM; TGI (SF-268 CNS): 56.5 µM; GI50 (SK-OV-3 ovarian): 34.7 µM; TGI (SK-OV-3 ovarian): > 100 µM; GI50 (OVCAR-3 ovarian): 6.44 µM; TGI (OVCAR-3 ovarian): 22.3 µM; GI50 (DU-145 prostate): 25.3 µM; TGI (DU-145 prostate): 65.8 µM; GI50 (SF-539 CNS): 19.9 µM; TGI (SF-539 CNS): 42.8 µM; GI50 (T-47D breast): 8.76 µM; TGI (T-47D breast): 74.7 µM; GI50 (UACC-62 melanoma): 11.2 µM; TGI (UACC-62 melanoma): 25.5 µM; GI50 (MDA-MB-435): 20.7 µM; TGI (MDA-MB-435): 49.2 µM; GI50 (HT29 colon): 24.4 µM; TGI (HT29 colon): 73.1 µM; GI50 (CAKI-1 renal): 17.4 µM; TGI (CAKI-1 renal): 57.3 µM; GI50 (MDA-MB-231 breast): 14.8 µM; TGI (MDA-MB-231 breast): 31.8 µM; GI50 (SN12C renal): 24.2 µM; TGI (SN12C renal): 71.6 µM; GI50 (HL-60(TB) leukemia): 16.7 µM; TGI (HL-60(TB) leukemia): 39.3 µM; GI50 (MALME-3M melanoma): 21.9 µM; TGI (MALME-3M melanoma): 63.6 µM; GI50 (UO-31 renal): 21.7 µM; TGI (UO-31 renal): > 100 µM; GI50 (U251 CNS): 12.5 µM; TGI (U251 CNS): 30.4 µM; GI50 (HOP-92 NSCLC): 6.71 µM; TGI (HOP-92 NSCLC): 38.3 µM; GI50 (HCC-2998 colon): 24.5 µM; TGI (HCC-2998 colon): 56.4 µM; GI50 (A549 NSCLC): 32.8 µM; TGI (A549 NSCLC): > 100 µM; GI50 (PC-3 prostate): 6.95 µM; TGI (PC-3 prostate): 69.6 µM; GI50 (BT-549 breast): 20.8 µM; TGI (BT-549 breast): 86.6 µM; GI50 (LOX IMVI melanoma): 14.8 µM; TGI (LOX IMVI melanoma): 30.2 µM; GI50 (RXF 393 renal): 11.3 µM; TGI (RXF 393 renal): 25.3 µM; GI50 (HOP-62 NSCLC): 14.8 µM; TGI (HOP-62 NSCLC): 33.2 µM; GI50 (MCF7 breast): 16 µM; TGI (MCF7 breast): 57.4 µM; GI50 (K-562 leukemia): 13.4 µM; TGI (K-562 leukemia): 44.6 µM; GI50 (MOLT-4 leukemia): 12.8 µM; TGI (MOLT-4 leukemia): 40.5 µM; GI50 (OVCAR-8 ovarian): 32 µM; TGI (OVCAR-8 ovarian): 97.5 µM; GI50 (COLO 205 colon): 18.3 µM; TGI (COLO 205 colon): 34.1 µM; GI50 (CCRF-CEM leukemia): 17.2 µM; TGI (CCRF-CEM leukemia): 45.7 µM; GI50 (OVCAR-4 ovarian): 32.7 µM; TGI (OVCAR-4 ovarian): > 100 µM; GI50 (A498 renal): 5.92 µM; TGI (A498 renal): 25.3 µM; GI50 (RPMI-8226 leukemia): 5.69 µM; TGI (RPMI-8226 leukemia): 26.4 µM; GI50 (HCT-15 colon): 20.3 µM; TGI (HCT-15 colon): > 100 µM; GI50 (NCI/ADR-RES ovarian): 30.2 µM; TGI (NCI/ADR-RES ovarian): > 100 µM; GI50 (SK-MEL-5 melanoma): 16.3 µM; TGI (SK-MEL-5 melanoma): 31.5 µM; GI50 (KM12 colon): 18.2 µM; TGI (KM12 colon): 38.2 µM; GI50 (SNB-75 CNS): 17 µM; TGI (SNB-75 CNS): 78.3 µM; GI50 (TK-10 renal): 23.6 µM; TGI (TK-10 renal): 80.6 µM; GI50 (SF-295 CNS): 11.2 µM; TGI (SF-295 CNS): 29.8 µM; GI50 (HCT-116 colon): 13.1 µM; TGI (HCT-116 colon): 26.9 µM; GI50 (NCI-H226 lung): 17.2 µM; TGI (NCI-H226 lung): 36.2 µM; GI50 (SK-MEL-28 melanoma): 14.3 µM; TGI (SK-MEL-28 melanoma): 29.1 µM; GI50 (OVCAR-5 ovarian): 19.8 µM; TGI (OVCAR-5 ovarian): 44.2 µM
